Test results reported in patent US20220363665A1, “QUINOLINE COMPOUNDS FOR THE TREATMENT OF AUTOIMMUNE DISEASE” (Hoffmann-La Roche Inc., priority 2019, published 2022).

What was measured:
Assay type in all cases: in vitro ADME
[1] = Human microsome stability assay; settings: 1 μM test compound, 0.5 mg/mL protein
Protocol: The human microsomal stability assay is used for early assessment of metabolic stability of a test compound in human liver microsomes.
Human liver microsomes (Cat. NO.: 452117, Corning, USA; Cat. NO.: H2610, Xenotech, USA) were preincubated with test compound for 10 minutes at 37° C. in 100 mM potassium phosphate buffer, pH 7.4. The reactions were initiated by adding NADPH regenerating system. The final incubation mixtures contained 1 μM test compound, 0.5 mg/mL liver microsomal protein, 1 mM MgCl2, 1 mM NADP, 1 unit/mL isocitric dehydrogenase and 6 mM isocitric acid in 100 mM potassium phosphate buffer, pH 7.4. After incubation times of 0, 3, 6, 9, 15 and 30 minutes at 37° C., 300 μL of cold ACN (including internal standard) was added to 100 μL incubation mixture to terminate the reaction. Following precipitation and centrifugation, the amount of compound remaining in the samples were determined by LC-MS/MS. Controls of no NADPH regenerating system at zero and 30 minutes were also prepared and analyzed. The results were categorized as: low (<7.0 mL/min/kg), medium (7.0˜16.2 mL/min/kg) and high (16.2-23.2 mL/min/kg).

CYP2D6 = biological target: T1, CYP2D6 (Homo sapiens, UniProt P10635); experiment: CYP inhibition assay in human liver microsome, CYP2D6; settings: HLM, dextromethorphan substrate; for inhibition at 10 min, 10 µM: human, liver microsomes, probe dextromethorphan, read-out: CYP inhibition % @10 uM (2D6)
T1 construct: tissue BD-Gentest 452117; host or cells: human liver microsomes
Protocol: (§1) This is a high throughput screening assay used for assessment of reversible inhibition of CYP2C9, CYP2D6, and CYP3A4 activity of test compounds in human liver microsome (HLM) in early discovery stage.
(§2) 10 mM DMSO stock solutions of test compounds were diluted in DMSO to generate 2 mM intermediate stock solution. 250 nL of intermediate stock solution were transferred in duplicate into 3 separate 384 well microtitre plates (assay-ready plates). A mixture of HLM and each substrate was made up. 45 μL of HLM substrate mix was then transferred to each well of an assay ready plate and mixed. The negative (solvent) and positive controls (standard inhibitor for each CYP) were included in each assay ready plate. The assay ready plate was warmed to 37° C. in an incubator over 10 minutes. 5 μL pre-warmed NADPH regenerating system was added to each incubation well to start the reaction. Final incubation volume was 50 μL. The assay plate then was placed back in the 37° C. incubator. After 5 minutes incubation (10 minutes for CYP2D6), incubates were quenched by addition of 50 μL quench reagent containing internal standards (400 ng/mL 13C6-4′-OH-Diclofenac, 20 ng/mL D3-Dextrorphan and 20 ng/mL D4-1′OH-Midazolam in acetonitrile). The supernatants were collected for RapidFire/MS/MS analysis.
(§3) RapidFire online solid phase extraction/sample injection system (Agilent) coupled with API4000 triple quadrupole mass spectrometer (AB Sciex) were used for sample analysis. The mobile phase composed of acetonitrile and water supplemented with 0.1% formic acid. A C4 solid phase extraction cartridge is used for sample separation. MS detection is achieved in positive ion MRM mode.
(§4) Peak areas for substrate, metabolite and internal standard are determined using the
(§5) RapidFire integrator software (version 3.6.12009.12296). Peak area ratios (PAR) of metabolite and internal standard (stable-labelled metabolite) are then calculated. The measurement window for each experiment is then defined:
(§6) PAR (0% activity)=average PAR for all incubations containing concentrated inhibitor;
(§7) Par (100% activity)=average PAR for all incubations containing no inhibitor (DMSO controls);
(§8) % Activity (test inhibitor) =[PAR(test inhibitor)-PAR(0% activity)][PAR(100% activity)-PAR(0% activity)];
(§9) % Inhibition (test inhibitor)=100-% Activity (test inhibitor).
(§10) Percentage inhibition data are then reported, in duplicate, for the 3 CYP enzymes.

CYP3A4 = biological target: T2, CYP3A4 (Homo sapiens, UniProt P08684); experiment: CYP inhibition assay in human liver microsome, CYP3A4; settings: HLM, midazolam substrate; for inhibition at 5 min, 10 µM: human, liver microsomes, probe midazolam, read-out: CYP inhibition % @10 uM (3A4)
T2 construct: tissue BD-Gentest 452117; host or cells: human liver microsomes
Protocol: as §1, §2, §3, §4, §5, §6, §7, §8, §9, §10

T1 sequence (P10635 whole entry): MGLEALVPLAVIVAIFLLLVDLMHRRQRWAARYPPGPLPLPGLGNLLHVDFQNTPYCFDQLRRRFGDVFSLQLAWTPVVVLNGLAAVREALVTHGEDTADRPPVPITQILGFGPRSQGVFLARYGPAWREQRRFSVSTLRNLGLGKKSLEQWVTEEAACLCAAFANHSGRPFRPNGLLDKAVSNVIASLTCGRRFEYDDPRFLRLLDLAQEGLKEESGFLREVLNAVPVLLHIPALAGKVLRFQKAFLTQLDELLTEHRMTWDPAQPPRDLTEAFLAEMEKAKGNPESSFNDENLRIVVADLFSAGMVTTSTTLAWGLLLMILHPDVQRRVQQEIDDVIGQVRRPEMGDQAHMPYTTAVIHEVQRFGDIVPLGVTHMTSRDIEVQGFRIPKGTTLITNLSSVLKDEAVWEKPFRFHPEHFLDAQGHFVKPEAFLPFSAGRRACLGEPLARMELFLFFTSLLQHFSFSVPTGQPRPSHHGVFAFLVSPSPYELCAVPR
T2 sequence (P08684 whole entry): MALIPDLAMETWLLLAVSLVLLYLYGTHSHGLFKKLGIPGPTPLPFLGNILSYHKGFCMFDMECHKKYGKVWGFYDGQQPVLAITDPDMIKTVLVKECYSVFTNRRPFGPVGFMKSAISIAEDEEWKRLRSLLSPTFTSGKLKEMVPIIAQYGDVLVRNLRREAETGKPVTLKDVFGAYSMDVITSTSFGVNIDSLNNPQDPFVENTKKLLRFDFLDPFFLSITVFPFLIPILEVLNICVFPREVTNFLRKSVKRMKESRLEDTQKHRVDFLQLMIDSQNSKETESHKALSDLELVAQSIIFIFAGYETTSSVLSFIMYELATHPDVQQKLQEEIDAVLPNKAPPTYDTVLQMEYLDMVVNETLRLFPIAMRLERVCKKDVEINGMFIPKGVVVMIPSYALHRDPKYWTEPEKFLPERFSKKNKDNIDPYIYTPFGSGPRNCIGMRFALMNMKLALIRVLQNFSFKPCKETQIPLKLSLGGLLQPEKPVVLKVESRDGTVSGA

| Compound | inhibition at 10 min, 10 µM (CYP2D6) [%] | inhibition at 5 min, 10 µM (CYP3A4) [%] | further results |
| --- | --- | --- | --- |
| C[C@@H]1CN(c2ccc(C(F)(F)F)c3ncccc23)C[C@H](C(=O)N[C@H]2CNC[C@H]2F)O1 (single isomer, unassigned) [Example 2B] | – | – | clearance in human liver microsomes [1]: 6.15 mL/min/kg |
| C[C@@H]1CN(c2ccc(C(F)(F)F)c3ncccc23)C[C@H](C(=O)NC2CC3CCCC(C2)N3)O1 (single isomer, unassigned) [Example 34A] | – | – | CYP inhibition % @10 uM (2D6) (CYP2D6): 3%; clearance in human liver microsomes [1]: 6.24 mL/min/kg |
| CC(NC(=O)[C@H]1CN(c2ccc(C(F)(F)F)c3ncccc23)C[C@@H](C)O1)C1CN(C)CCO1 (single isomer, unassigned) [Example 35A] | – | – | CYP inhibition % @10 uM (2D6) (CYP2D6): 8% |
| CC(NC(=O)[C@H]1CN(c2ccc(C(F)(F)F)c3ncccc23)C[C@@H](C)O1)C1CN(C)CCO1 (single isomer, unassigned) [Example 35B] | – | – | CYP inhibition % @10 uM (2D6) (CYP2D6): 2% |
| C[C@@H]1CN(c2ccc(C(F)(F)F)c3ncccc23)C[C@H](C(=O)NC2CC3CNCC32)O1 (single isomer, unassigned) [Example 49A] | – | – | CYP inhibition % @10 uM (2D6) (CYP2D6): 2%; CYP inhibition % @10 uM (3A4) (CYP3A4; 10 µM): −25% |
| C[C@@H]1CN(c2ccc(C(F)(F)F)c3ncccc23)C[C@H](C(=O)NC2CC3CNCC32)O1 (single isomer, unassigned) [Example 49C] | – | – | CYP inhibition % @10 uM (2D6) (CYP2D6): 8%; clearance in human liver microsomes [1]: 6.15 mL/min/kg |
| C[C@H]1C[C@@H](N)CN(c2ccc(C(F)(F)F)c3ncccc23)C1 [Example 1, (3R,5S)-5-methyl-1-[8-(trifluoromethyl)-5-quinolyl]piperidin-3-amine] | – | – | clearance in human liver microsomes [1]: 6.15 mL/min/kg |
| C[C@@H]1CN(c2ccc(C(F)(F)F)c3ncccc23)C[C@H](C(=O)NC2CNC[C@@H]2F)O1 (stereo partly drawn) [Example 2, cis-(2R,6R)-N-(4-fluoropyrrolidin-3-yl)-6-methyl-4-[8-(trifluoromethyl)-5-quinolyl]morpholine-2-carboxamide] | – | – | clearance in human liver microsomes [1]: 6.15 mL/min/kg |
| C[C@@H]1CN(c2ccc(C(F)(F)F)c3ncccc23)C[C@H](C(=O)NCC2CN(C)CCO2)O1 (stereo partly drawn) [Example 3, (2R,6R)-6-methyl-N-[(4-methylmorpholin-2-yl)methyl]-4-[8-(trifluoromethyl)-5-quinolyl]morpholine-2-carboxamide] | 16 | -11 | – |
| C[C@@H]1CN(c2ccc(C(F)(F)F)c3ncccc23)C[C@H](C(=O)NCC2CCCCN2C)O1 (stereo partly drawn) [Example 4, (2R,6R)-6-methyl-N-[(1-methyl-2-piperidyl)methyl]-4-[8-(trifluoromethyl)-5-quinolyl]morpholine-2-carboxamide] | 10 | -14 | – |
| C[C@@H]1CN(c2ccc(C(F)(F)F)c3ncccc23)C[C@H](C(=O)N2CC(N)C2)O1 [Example 7, (3-aminoazetidin-1-yl)-[(2R,6R)-6-methyl-4-[8-(trifluoromethyl)-5-quinolyl]morpholin-2-yl]methanone] | – | – | clearance in human liver microsomes [1]: 6.15 mL/min/kg |
| C[C@@H]1CN(c2ccc(C(F)(F)F)c3ncccc23)C[C@H](C(=O)NC2CN(C)CC23CC3)O1 (stereo partly drawn) [Example 9, (2R,6R)-6-methyl-N-(5-methyl-5-azaspiro[2.4]heptan-7-yl)-4-[8-(trifluoromethyl)-5-quinolyl]morpholine-2-carboxamide] | 6 | -18 | – |
| C[C@@H]1CN(c2ccc(C(F)(F)F)c3ncccc23)C[C@H](C(=O)NCC2COCCN2C)O1 (stereo partly drawn) [Example 11, (2R,6R)-6-methyl-N-[(4-methylmorpholin-3-yl)methyl]-4-[8-(trifluoromethyl)-5-quinolyl]morpholine-2-carboxamide] | 5 | -28 | – |
| C[C@@H]1CN(c2ccc(C(F)(F)F)c3ncccc23)C[C@H](C(=O)NCCN2CCOCC2)O1 [Example 13, (2R,6R)-6-methyl-N-(2-morpholinoethyl)-4-[8-(trifluoromethyl)-5-quinolyl]morpholine-2-carboxamide] | 0 | -22 | – |
| C[C@@H]1CN(c2ccc(C(F)(F)F)c3ncccc23)C[C@H](C(=O)NC2CNCCOC2)O1 (stereo partly drawn) [Example 14, (2R,6R)-6-methyl-N-(1,4-oxazepan-6-yl)-4-[8-(trifluoromethyl)-5-quinolyl]morpholine-2-carboxamide] | -1 | -24 | – |
| Cc1ccc(N2C[C@@H](C)C[C@@H](N)C2)c2cccnc12 [Example 15, (3R,5S)-5-methyl-1-(8-methyl-5-quinolyl)piperidin-3-amine] | -10 | -18 | – |
| C[C@@H]1CN(c2ccc([N+](=O)[O-])c3ncccc23)C[C@H](C(=O)NCC2CN(C)CCO2)O1 (stereo partly drawn) [Example 18, (2R,6R)-6-methyl-N-[(4-methylmorpholin-2-yl)methyl]-4-(8-nitro-5-quinolyl)morpholine-2-carboxamide] | 0 | 11 | – |
| C[C@@H]1CN(c2ccc([N+](=O)[O-])c3ncccc23)C[C@H](C(=O)NC2CCN(C)CC2)O1 [Example 20, (2R,6R)-6-methyl-N-(1-methyl-4-piperidyl)-4-(8-nitro-5-quinolyl)morpholine-2-carboxamide] | -12 | 6 | – |
| C[C@@H]1CN(c2ccc(Cl)c3ncccc23)C[C@H](C(=O)N[C@H]2CNC[C@H]2F)O1 [Example 22, (2R,6R)-4-(8-chloro-5-quinolyl)-N-[(3S,4R)-4-fluoropyrrolidin-3-yl]-6-methyl-morpholine-2-carboxamide] | – | – | clearance in human liver microsomes [1]: 6.15 mL/min/kg |
| C[C@@H]1CN(c2ccc(C(F)(F)F)c3ncccc23)C[C@H](C(=O)NC2CNCC(F)(F)C2)O1 (stereo partly drawn) [Example 28, (2R,6R)-N-(5,5-difluoro-3-piperidyl)-6-methyl-4-[8-(trifluoromethyl)-5-quinolyl]morpholine-2-carboxamide] | 2 | -30 | – |
| C[C@@H]1CN(c2ccc(C(F)(F)F)c3ncccc23)C[C@H](C(=O)NC[C@@H]2CC(F)(F)CN2)O1 [Example 30] | 20 | 20 | – |
| C[C@@H]1CN(c2ccc(C(F)(F)F)c3ncccc23)C[C@H](C(=O)N2CCC3(CCNCC3)CC2)O1 [Example 32, 3,9-diazaspiro[5.5]undecan-3-yl-[(2R,6R)-6-methyl-4-[8-(trifluoromethyl)-5-quinolyl]morpholin-2-yl]methanone] | -22 | -2 | – |
| C[C@@H]1CN(c2ccc(C(F)(F)F)c3ncccc23)C[C@H](C(=O)N2CCC3(CCNC3)C2)O1 (stereo partly drawn) [Example 36] | -10 | – | – |
| C[C@@H]1CN(c2ccc(C(F)(F)F)c3ncccc23)C[C@H](C(=O)NC2CC3CNCC(C3)C2)O1 (stereo partly drawn) [Example 37, (2R,6R)-N-(3-azabicyclo[3.3.1]nonan-7-yl)-6-methyl-4-[8-(trifluoromethyl)-5-quinolyl]morpholine-2-carboxamide] | 3 | – | – |
| C[C@@H]1CN(c2ccc(I)c3ncccc23)C[C@H](C(=O)NCC2CN(C)CCO2)O1 (stereo partly drawn) [Example 39, (2R,6R)-4-(8-iodo-5-quinolyl)-6-methyl-N-[(4-methylmorpholin-2-yl)methyl]morpholine-2-carboxamide] | 5 | 5 | – |
| C[C@@H]1CN(c2ccc(Br)c3ncccc23)C[C@H](C(=O)NC2CCN(C)CC2)O1 [Example 42, (2R,6R)-4-(8-bromo-5-quinolyl)-6-methyl-N-(1-methyl-4-piperidyl)morpholine-2-carboxamide] | -3 | – | – |
